Assay results taken from US5066489A (Cetus Corporation, priority 1990, dated 1991).

Experiments:
[1] = DTIC pharmacokinetics in patients (first two cycles, 12 patients); type: in vivo, human; settings: effect of IL-2; first two cycles in 12 patients
Experimental: (§1) For the First Cycle--Patients were admitted to the hospital on a Sunday evening for a Hickman catheter placement on the succeeding Monday. On Day 1 (Tuesday), DTIC was administered by continuous 24 hour infusion at a dose of 1.0 gm/m^2 intravenously. Pharmacokinetic studies were performed on Days 1 and 2.
DTIC pharmokinetics were performed on the first two cycles in 12 patients.

[2] = cited from earlier work
metastatic melanoma = settings: cited from earlier work
[3] = Phase I-II study of IL-2 plus DTIC in melanoma patients: toxicity; type: in vivo, human; settings: DTIC 1.0 gm/m^2 24 h infusion
Experimental: Patients, between 18 to 70 years of age, were admitted for three, separate Phase I-II studies. Each patient had to meet the following criteria for entering the study:
1. Dose and Schedule--Twenty patients received three cycles of Interleukin-2 in combination with DTIC. Each cycle was 28 days in duration. All drugs were administered by hospital staff either while in-patient or in the out-patient clinic. Patients received 1.0 gm/m^2 of DTIC as an IV continuous infusion over 24 hours every 4 weeks.
as §1
The dose schedule was identical to that given for cycle two.

For `NC(=O)c1[nH]cnc1N` [AIC, 5-aminoimidazole 4-carboxamide], which peak plasma levels [1] is on record?
Its peak plasma levels is “not altered by IL-2”.

What does the source list for `CN(C)N=Nc1[nH]cnc1C(N)=O` [DTIC, dimethyl-triazeno-imidazole-carboxmide]?
hematologic and GI toxicities ([2]; DTIC dose regimen): vary with the DTIC dose regimen used; acute toxicity ([2]; five-day continuous infusions): least acute toxicity; antitumor schedule dependency (metastatic melanoma; DTIC dose regimens): has not been observed; single agent response rate (metastatic melanoma; Roth and Kirkwood (1987)): 24%; most promising response rate (%) observed alone (metastatic melanoma; complete plus partial responses, treatment of melanoma, Roth (DTIC), Rosenberg et al 1987 (IL-2)): approximately 24%; dose responses (metastatic melanoma; five-day continuous infusions): equivalent dose responses; responsiveness of visceral metastases (gastrointestinal tract, liver, brain) (metastatic melanoma; versus soft tissue disease): relatively less responsive than soft tissue disease; dosage adjustments for nausea/vomiting or for myelosuppression [3]: required no dosage adjustments; mild nausea and vomiting ([3]; of the courses): 96%; peak plasma levels [1]: not altered by IL-2
